# Measured values published in patent publication US8058243B2, “Method for treating a brain cancer with ifenprodil” (HSC Research and Development Limited Partnership, priority 2006, dated 2011).
# Where a name gives a salt, the structure may show the parent alone. Read-outs that look alike come from different tables or passages of the source.
# Tested on: murine neural precursor cells (neurosphere cultures)
# Assay: HTS of LOPAC library against secondary neurosphere cultures, MTT proliferation assay at 3 μM, day 7 (z score, P value)
# Type: cell-based, mouse
# [1] = primary LOPAC screen, 3 μM, MTT, neurosphere proliferation
# [2] = yes/no: significantly inhibited neurosphere proliferation in the primary screen
# [3] = LOPAC primary screen, neurosphere MTT proliferation, 3 μM, day 7
# [4] = yes/no: significantly inhibited neurosphere proliferation (P<0.01) in primary screen
# [5] = LOPAC library screen at 3 μM, MTT, secondary neurosphere cultures, screened in singlets
# [6] = LOPAC library screen, 3 μM, MTT, secondary neurosphere cultures, day 7
# [7] = yes = significantly inhibited neurosphere proliferation (P<0.01) in the primary screen
# [8] = LOPAC library screen, 3 μM, MTT, neurosphere cultures
# [9] = yes/no: significantly inhibited neurosphere proliferation (P<0.01) in the primary screen
# [10] = yes/no: significantly inhibited neurosphere proliferation in primary screen
# [11] = LOPAC library screen at 3 μM, secondary neurosphere cultures, MTT
# [12] = LOPAC screen, neurosphere MTT proliferation, 3 μM, day 7
compound,measurement,setting,value
Nc1nc2c(nc(Br)n2[C@@H]2O[C@@H]3COP(=O)([O-])O[C@H]3[C@H]2O)c(=O)[nH]1.[Na+] [8-Bromo-cGMP sodium],Z Score,,−1.005
same,Z score,[1],−1.005
same,Activity,[2],no
Cl.O=C(OC1CCN(CCCl)CC1)C(c1ccccc1)c1ccccc1 [4-Diphenylacetoxy-N-(2-chloroethyl)piperidine hydrochloride],Z Score,,0.8645
same,Z score,[3],0.864
same,Activity,[4],no
Cc1oncc1C(=O)Nc1ccc(C(F)(F)F)cc1 [Leflunomide],Z Score,[5],4.103
same,Z score,[3],4.103
same,Activity,[4],no
C[N+]1(C)C2CCC1CC(OC(=O)c1c[nH]c3ccccc13)C2.[I-] (centres unmarked),Z Score,,−0.3436
same,Z score,[1],−0.344
same,Activity,[2],no
N#CCCN.N#CCCN.O=C(O)/C=C/C(=O)O [3-Aminopropionitrile fumarate],Z Score,,1.234
same,Z score,[1],1.234
same,Activity,[2],no
Cc1ccccc1N1C(=O)c2cc(S(N)(=O)=O)c(Cl)cc2NC1C (centres unmarked) [Metolazone],Z Score,[6],−8.113
same,Z score,[3],−8.113
same,Activity,[7],yes
N#C/C(=C\c1ccc(O)c(O)c1)C(N)=S [Tyrphostin 47],Z Score,,0.1775
same,Z score,[1],0.178
same,Activity,[2],no
CN(C)CCCN1c2ccccc2Sc2ccc(Cl)cc21 [Chlorpromazine hydrochloride],Z Score,[8],0.7506
same,Z score,[3],0.751
same,Activity,[9],no
"Br.Br.N=C(N)SCCc1ccc(CCSC(=N)N)cc1 [1,4-PBIT dihydrobromide]",Z Score,,−1.179
same,Z score,[3],−1.179
same,Activity,[10],no
NC(=O)OCC(COC(N)=O)c1ccccc1 [Felbamate],Z Score,[11],−0.4586
same,Z score,[3],−0.459
same,Activity,[4],no
CS(=O)(=O)Nc1ccc([N+](=O)[O-])cc1Oc1ccccc1 [Nimesulide],Activity,,yes
same,Z Score,[6],−2.395
same,Z score,[3],−2.395
C[C@H](NC(=O)/C(C#N)=C/c1ccc(O)c(O)c1)c1ccccc1 [Tyrphostin AG 835],Z Score,,2.23
same,Z score,[1],2.230
same,Activity,[2],no
O=c1nc2[nH]c3ccccc3nc-2c(=O)[nH]1 [Alloxazine],Z Score,[11],−0.4424
same,Z score,[1],−0.442
same,Activity,[2],no
"OCCN1CCN(CCCN2c3ccccc3Sc3ccc(Cl)cc32)CC1 [Perphenazine (26), Perphenazine, reference compound]",Z Score,[6],−11.06
same,Z score,[3],−11.065
same,Activity,[9],yes
"CC(=O)[C@H]1CC[C@H]2[C@@H]3CC[C@H]4C[C@H](O)CC[C@]4(C)[C@H]3C(=O)C[C@]12C [5alpha-Pregnan-3alpha-ol-11,20-dione]",Z Score,,−0.8078
same,Z score,[3],−0.808
Terbutaline hemisulfate,Z Score,[8],0.6409
same,Z score,[1],0.641
same,Activity,[2],no
CSc1ccc(C(=O)c2[nH]c(=O)[nH]c2C)cc1 [Enoximone],Z Score,[11],−0.6237
same,Z score,[12],−0.624
same,Activity,[4],no
NC(CP(=O)(O)O)C(=O)O (racemic) [(±)-2-Amino-3-phosphonopropionic acid],Z score,[1],1.250
same,Activity,[2],no
Nc1nc2ccc(OC(F)(F)F)cc2s1 [Riluzole],Z Score,[11],−1.033
same,Z score,[3],−1.033
COC(=O)C(C)(N)Cc1ccc(O)cc1.Cl (racemic) [alpha-Methyl-DL-tyrosine methyl ester hydrochloride],Z Score,"168 h, 3 µM",0.3703
same,Z score,"168 h, 3 µM",0.370
same,Activity,[9],no
"N=C(N)c1ccc(OCCCCCOc2ccc(C(=N)N)cc2)cc1 [Pentamidine (32), Pentamidine, reference compound]",Activity,,yes
same,Z Score,[6],−11.27
same,Z score,[3],−11.274
O=C(OCCN1CCOCC1)C1(c2ccccc2)CCCCC1 [PRE-084],Z Score,,1.311
same,Z score,[3],1.311
same,Activity,[9],no
Cc1nccc2c1[nH]c1ccccc12 [Harmane],Z Score,,−1.403
same,Z score,[3],−1.403
COc1nc(C)nc(Cl)c1N=C1NCCN1 [Moxonidine hydrochloride],Z Score,[8],0.2171
same,Z score,[3],0.217
same,Activity,[7],no
COC(=O)[C@H]1[C@H]2C[C@H]3c4[nH]c5ccccc5c4CCN3C[C@H]2CC[C@@H]1O [Rauwolscine hydrochloride],Z Score,"168 h, 3 µM",−1.747
same,Z score,"168 h, 3 µM",−1.747
same,Activity,[10],no
N#Cc1cc2nc([O-])c([O-])nc2cc1[N+](=O)[O-].[Na+].[Na+] [CNQX disodium],Z Score,[6],−1.904
same,Z score,[12],−1.904
same,Activity,[4],no
CCNC(=O)[C@H]1O[C@@H](n2cnc3c(NCc4ccccc4)ncnc32)[C@H](O)[C@@H]1O [N6-Benzyl-5′-N-ethylcarboxamidoadenosine],Z Score,[11],−0.7976
same,Z score,[12],−0.798
same,Activity,[4],no
(+)-Nicotine (+)-di-p-toluoyl tartrate,Activity,,no
same,Z Score,,−2.233
same,Z score,,−2.233
CC(C)N(CCC(=O)c1ccc2ccccc2c1)Cc1ccccc1 [ZM 39923 hydrochloride],Z Score,[8],0.7457
same,Z score,[3],0.746
same,Activity,[7],no
Cl.N=c1c[n+](N2CCOCC2)[n-]o1 [3-Morpholinosydnonimine hydrochloride],Z Score,"168 h, 3 µM",−1.324
same,Z score,"168 h, 3 µM",−1.324
same,Activity,[7],no
m-Iodobenzylguanidine hemisulfate,Activity,,yes
same,Z Score,,−2.564
same,Z score,,−2.564
NCc1cc(=O)[nH]o1 [Muscimol hydrobromide],Z Score,,0.1863
same,Z score,[3],0.186
same,Activity,[4],no
Phenylbenzene-omega-phosphono-alpha-amino acid,Z Score,,−0.01423
same,Z score,[3],−0.014
same,Activity,[10],no
CC(C)NCC(O)COc1cccc2ccccc12.Cl (centres unmarked) [(B1)-Propranolol hydrochloride],Z Score,[8],0.3567
CN/C(=N\c1ccc(C2=NNC(=O)CC2C)cc1)NC#N (centres unmarked) [SKF 94836],Z Score,,0.2458
same,Z score,[3],0.246
same,Activity,[10],no
Cl.Cl.NCCNS(=O)(=O)c1cccc2cnccc12 [H-9 dihydrochloride],Z Score,,−0.1899
same,Z score,[1],−0.190
same,Activity,[2],no
CC(COc1ccc(/C=C/c2ccccc2)cc1)[N+](C)(C)C.[I-] (centres unmarked),Z Score,,−11.13
CCCN1CCC[C@@H]2Cc3nc(N)ncc3C[C@H]21.Cl.Cl [Quinelorane dihydroechloride],Z Score,,−1.567
O=C1Cc2c([nH]c3ccc(Br)cc23)-c2ccccc2N1 [Kenpaullone],Z Score,"168 h, 3 µM",−1.555
same,Z score,"168 h, 3 µM",−1.555
same,Activity,[4],no
"CC(=O)N[C@@H](Cc1c[nH]c2ccccc12)C(=O)OCc1cc(C(F)(F)F)cc(C(F)(F)F)c1 [L-732,138]",Z Score,,0.5027
same,Z score,[1],0.503
same,Activity,[2],no
Cl.O=c1[nH]oc2c1CCNC2 [THIP hydrochloride],Z Score,,0.3613
same,Z score,[1],0.361
same,Activity,[2],no
CCCCNc1c(C(=O)OCC)c(C)nc2c1cnn2CC [Tracazolate],Z Score,[11],−0.3151
same,Z score,[1],−0.315
same,Activity,[2],no
C[C@]12CC[C@@H]3c4ccc(O)cc4CC[C@H]3[C@@H]1CC[C@@H]2O [beta-Estradiol],Z Score,,−0.5623
same,Z score,[3],−0.562
same,Activity,[4],no
CCOC(=O)C1=C(C)NC(C)=C(C(=O)OC)C1c1cccc(Cl)c1Cl (centres unmarked) [Felodipine],Z Score,[11],−0.9658
same,Z score,[3],−0.966
CCOC(=O)Nc1ccc(NCc2ccc(F)cc2)nc1N [Flupirtine maleate],Z Score,[11],−0.484
same,Z score,[3],−0.484
same,Activity,[4],no
NC(CCCP(=O)(O)O)C(=O)O (racemic) [(±)-2-Amino-5-phosphonopentanoic acid],Z score,"168 h, 3 µM",−1.045
same,Activity,[2],no
"Cc1nnc2ccc(-c3cccc(C(F)(F)F)c3)nn12 [3-Methyl-6-(3-[trifluoromethyl]phenyl)-1,2,4-triazolo[4,3-b]pyridazine]",Z Score,,0.09095
same,Z score,[3],0.091
same,Activity,[7],no
COc1cc2c(CCNC(C)=O)c[nH]c2cc1Cl [6-Chloromelatonin],Z Score,[6],−1.659
same,Z score,[12],−1.659
same,Activity,[4],no
Br.Cc1o[nH]c(=O)c1CC(N)C(=O)O (racemic) [(±)-AMPA hydrobromide],Z score,[3],−0.427
same,Activity,[4],no
[N-]=[N+]=Nc1ccc(C(=O)CSC[C@H](NC(=O)CC[C@H](N)C(=O)O)C(=O)NCC(=O)O)cc1 [S-(p-Azidophenacyl)glutathione],Z Score,[8],−0.00276
same,Z score,[1],−0.003
same,Activity,[2],no
CCCCc1oc2ccccc2c1C(=O)c1cc(I)c(OCCN(CC)CC)c(I)c1 [Amiodarone hydrochloride],Z Score,[8],0.9292
same,Z score,[1],0.929
same,Activity,[2],no
NC(=O)NO [Hydroxyurea],Z Score,[8],1.131
same,Z score,[3],1.131
same,Activity,[4],no
Cn1c(=O)c2c(nc(C=Cc3cccc(Cl)c3)n2C)n(C)c1=O [8-(3-Chlorostyryl)caffeine],Z Score,"168 h, 3 µM",−1.214
same,Z score,"168 h, 3 µM",−1.214
same,Activity,[4],no
Fc1ccc(C(c2ccc(F)cc2)N2CCN(C/C=C/c3ccccc3)CC2)cc1 [Flunarizine dihydrochloride],Z Score,[8],0.3954
same,Z score,[3],0.395
same,Activity,[4],no
N.N.[Cl][Pt][Cl] [Cisplatin],Z Score,[5],1.523
same,Z score,[3],1.523
same,Activity,[10],no
